Results published in patent publication US8604046B2, “Substituted piperidine spiro pyrrolidinone and piperidinone, preparation and therapeutic use thereof” (Sanofi, priority 2008, dated 2013).

Tests used:
rhesus H3 receptor [1] = molecular target: T1, rhesus H3 receptor (Macaca mulatta, UniProt Q865E1); test: GTPγS radioligand binding assay, inhibition of rhesus H3 constitutive functional activity (inverse agonism); type: biochemical, rhesus monkey (Macacca Mulatta); design: concentration or dose not given beside the values; conditions: rhesus H3 cell membranes, relative to basal levels
T1 sequence (Q865E1 1-445): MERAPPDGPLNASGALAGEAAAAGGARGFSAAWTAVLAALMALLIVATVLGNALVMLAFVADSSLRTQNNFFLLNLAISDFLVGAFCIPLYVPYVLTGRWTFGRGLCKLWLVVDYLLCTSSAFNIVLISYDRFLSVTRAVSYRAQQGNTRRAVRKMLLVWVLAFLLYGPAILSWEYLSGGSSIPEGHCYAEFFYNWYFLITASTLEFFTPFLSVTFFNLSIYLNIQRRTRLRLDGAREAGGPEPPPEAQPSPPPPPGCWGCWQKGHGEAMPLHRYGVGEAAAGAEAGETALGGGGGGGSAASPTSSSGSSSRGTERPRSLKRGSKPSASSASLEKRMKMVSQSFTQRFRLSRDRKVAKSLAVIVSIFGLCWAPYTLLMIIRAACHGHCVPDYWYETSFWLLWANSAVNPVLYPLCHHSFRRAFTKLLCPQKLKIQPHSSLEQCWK
Method: (§1) Rhesus H3 membranes were prepared from the Flp-In T-REx 293 Cell Line (Invitrogen) stably transfected with pcDNA5/FRT/TO (Invitrogen) containing the rhesus monkey (Macacca Mulatta) 445 amino acid H3 receptor. (Genbank #AY231164). Stably transfected cultures were amplified in tissue culture flasks by standard tissue culture methods and induced to express rhesus H3 by exposure to 500 ng/ml tetracycline (Cellgro) for 24 hours. After induction, cells were dissociated from flasks utilizing Cell Stripper (Cellgro). Cells were centrifuged (1K×g, 5 min) and pellet frozen in an ethanol-dry ice bath to disrupt cell membranes. Frozen cell pellet was re-suspended in 5 mM HEPES (pH 7.4, Invitrogen) at 10 ml/1000 cm2 of harvested cells. The cell suspension was drawn through an 18 gauge needle (2-3×) followed by a 23 gauge needle (2-3×) to further disrupt cell membranes. The cell suspension was centrifuged (40K×g, 30 min). Cell membrane pellet was re-suspended in 5 mM HEPES (pH 7.4, Invitrogen) at a final protein concentration of 10 mg/ml. Rhesus H3 membranes were stored under liquid nitrogen prior to use in [3H]-Methylhistamine and GTP S radioligand binding assays.

rhesus H3 receptor [2] = molecular target: T1, rhesus H3 receptor; test: Rhesus H3 [3H]-methylhistamine radioligand binding assay; design: species or system rhesus monkey (Macacca Mulatta); conditions: [3H]-Methylhistamine 2 nM, rhesus H3 membranes, WGA SPA beads, Cheng-Prusoff
Method: as §1
Rhesus H3 radioligand binding assay was performed using rhesus H3 receptor membranes (prepared as described above), [3H]-Methylhistamine (Perkin Elmer) and WGA SPA beads (wheat germ agglutinin scintillation proximity assay) beads (Amersham). The assay was performed in 96-well Opti-Plates (Packard). Each reaction contained 50 μl rhesus H3 membranes (20-30 μg total protein), 50 μl WGA SPA beads (0.1 μg) and 50 μl of 83 Ci/mmol [^3H]-Methylhistamine (final concentration 2 nM) and 50 μl of tested compound. The compounds of this invention and/or vehicle were diluted with binding buffer from 10 mM DMSO stocks. Assay plates were sealed with TopSeal (Perkin Elmer) and mixed on shaker (25° C., 1 hour). Assay plates were read on TopCount scintillation counter (Packard). Results were analyzed by Hill transformation and Ki values were determined by Cheng-Prusoff equation.

| SMILES | Inverse Agonism: % inhibition of Basal GTPγS binding in Rhesus H3 (rhesus H3 receptor [1]) [%] | Ki (rhesus H3 receptor [2]) [pM] |
| --- | --- | --- |
| Cc1cc(N2CC[C@H](N3CCC[C@@H]3C)C2)ccc1N1CCCC2(CCN(C(=O)c3ccoc3)CC2)C1=O [Example 27, 9-(Furan-3-carbonyl)-2-[2-methyl-4-((2S,3′S)-2-methyl-[1,3′]bipyrrolidinyl-1′-yl)-phenyl]-2,9-diaza-spiro[5.5]undecan-1-one] | −19 | 1600 |
| C[C@H]1CCCN1[C@H]1CCN(c2ccc(N3CCCC4(CCN(C(=O)c5ccccc5)CC4)C3=O)cc2)C1 [Example 28, 9-Benzoyl-2-[4-((2S,3′S)-2-methyl-[1,3′]bipyrrolidinyl-1′-yl)-phenyl]-2,9-diaza-spiro[5.5]undecan-1-one] | −15 | 500 |
| C[C@H]1CCCN1[C@H]1CCN(c2ccc(N3CCCC4(CCN(C(=O)c5ccc(F)cc5)CC4)C3=O)cc2)C1 [Example 29] | −17 | 400 |
| C[C@H]1CCCN1[C@H]1CCN(c2ccc(N3CCCC4(CCN(C(=O)C5CCCCC5)CC4)C3=O)c(F)c2)C1 [Example 30, 9-Cyclohexanecarbonyl-2-[2-fluoro-4-((2S,3′S)-2-methyl-[1,3′]bipyrrolidinyl-1′-yl)-phenyl]-2,9-diaza-spiro[5.5]undecan-1-one] | −22 | 700 |
| C[C@H]1CCCN1[C@H]1CCN(c2ccc(N3CCCC4(CCN(C(=O)C5CCOCC5)CC4)C3=O)c(F)c2)C1 [Example 31, 2-[2-Fluoro-4-((2S,3′S)-2-methyl-[1,3′]bipyrrolidinyl-1′-yl)-phenyl]-9-(tetrahydro-pyran-4-carbonyl)-2,9-diaza-spiro[5.5]undecan-1-one] | −19 | 400 |
| Cc1cc(N2CC[C@H](N3CCC[C@@H]3C)C2)ccc1N1CCCC2(CCN(C(C)C)CC2)C1=O [Example 32, 9-Isopropyl-2-[2-methyl-4-((2S,3′S)-2-methyl-[1,3′]bipyrrolidinyl-1′-yl)-phenyl]-2,9-diaza-spiro[5.5]undecan-1-one] | −14 | 400 |
| Cc1cc(N2CC[C@H](N3CCC[C@@H]3C)C2)ccc1N1CCCC2(CCN(CC3CCCCC3)CC2)C1=O [Example 33, 9-Cyclohexylmethyl-2-[2-methyl-4-((2S,3′S)-2-methyl-[1,3′]bipyrrolidinyl-1′-yl)-phenyl]-2,9-diaza-spiro[5.5]undecan-1-one] | −14 | 200 |
| C[C@H]1CCCN1[C@H]1CCN(c2ccc(N3CCCC4(CCN(CC5CC5)CC4)C3=O)cc2)C1 [Example 34, 9-Cyclopropylmethyl-2-[4-((2S,3′S)-2-methyl-[1,3′]bipyrrolidinyl-1′-yl)-phenyl]-2,9-diaza-spiro[5.5]undecan-1-one] | −16 | 200 |
| C[C@H]1CCCN1[C@H]1CCN(c2ccc(N3CCCC4(CCN(C5CCOCC5)CC4)C3=O)cc2)C1 [Example 35, 2-[4-((2S,3′S)-2-Methyl-[1,3′]bipyrrolidinyl-1′-yl)-phenyl]-9-(tetrahydro-pyran-4-yl)-2,9-diaza-spiro[5.5]undecan-1-one] | −18 | 40 |
| C[C@H]1CCCN1[C@H]1CCN(c2ccc(N3CCCC4(CCN(Cc5ccccc5)CC4)C3=O)c(F)c2)C1 [Example 36, 9-Benzyl-2-[2-fluoro-4-((2S,3′S)-2-methyl-[1,3′]bipyrrolidinyl-1′-yl)-phenyl]-2,9-diaza-spiro[5.5]undecan-1-one] | −13 | 60 |
| C[C@H]1CCCN1[C@H]1CCN(c2ccc(N3CCCC4(CCN(Cc5ccco5)CC4)C3=O)c(F)c2)C1 [Example 37, 2-[2-Fluoro-4-((2S,3′S)-2-methyl-[1,3′]bipyrrolidinyl-1′-yl)-phenyl]-9-furan-2-ylmethyl-2,9-diaza-spiro[5.5]undecan-1-one] | −17 | 100 |
| C[C@H]1CCCN1C1CCN(c2ccc(N3CCC4(CCN(C(=O)OC(C)(C)C)CC4)C3=O)cc2)CC1 [Example 38, 2-{4-[4-(2S-2-Methyl-pyrrolidin-1-yl)-piperidin-1-yl]-phenyl}-1-oxo-2,8-diaza-spiro[4,5]decane-8-carboxylic acid tert-butyl ester] | −25 | 8 |
| C[C@H]1CCCN1C1CCN(c2ccc(N3CCC4(CCN(C(=O)OC(C)(C)C)CC4)C3=O)c(C(F)(F)F)c2)CC1 [Example 39, 2-{4-[4-(2S-2-Methyl-pyrrolidin-1-yl)-piperidin-1-yl]-2-trifluoromethyl-phenyl}-1-oxo-2,8-diaza-spiro[4.5]decane-8-carboxylic acid tert-butyl ester] | −22 | 900 |
| C[C@H]1CCCCN1[C@H]1CCN(c2ccc(N3CCC4(CCN(C(=O)OC(C)(C)C)CC4)C3=O)cc2)C1 [Example 41, 2-{4-[3-((2S,3′S)-2-Methyl-piperidin-1-yl)-pyrrolidin-1-yl]-phenyl}-1-oxo-2,8-diaza-spiro[4.5]decane-8-carboxylic acid tert-butyl ester] | −14 | 5600 |
| C[C@H]1CCCCN1[C@H]1CCN(c2ccc(N3CCC4(CCN(C(=O)OC(C)(C)C)CC4)C3=O)c(C(F)(F)F)c2)C1 [Example 42, 2-{4-[3-((2S,3′S)-2-Methyl-piperidin-1-yl)-pyrrolidin-1-yl]-2-trifluoromethyl-phenyl}-1-oxo-2,8-diaza-spiro[4.5]decane-8-carboxylic acid tert-butyl ester] | −15 | 64000 |
| C[C@H]1CCCCN1[C@H]1CCN(c2ccc(N3CCC4(CCN(C(=O)OC(C)(C)C)CC4)C3=O)c(F)c2)C1 [Example 43, 2-{4-[3-((2S,3′S)-2-Methyl-piperidin-1-yl)-pyrrolidin-1-yl]-2-fluoro-phenyl}-1-oxo-2,8-diaza-spiro[4.5]decane-8-carboxylic acid tert-butyl ester] | −19 | 4300 |
| C[C@H]1CCCN1C1CCN(c2ccc(N3CCC4(CCNCC4)C3=O)cc2)CC1.Cl [Example 44, 2-{4-[4-(2S-2-Methyl-pyrrolidin-1-yl)-piperidin-1-yl]-phenyl}-2,8-diaza-spiro[4.5]decan-1-one Hydrochloride] | −19 | 100 |
| C[C@H]1CCCN1C1CCN(c2ccc(N3CCC4(CCNCC4)C3=O)c(C(F)(F)F)c2)CC1.Cl [Example 45, 2-{4-[4-(2S-2-Methyl-pyrrolidin-1-yl)-piperidin-1-yl]-2-trifluoromethyl-phenyl}-2,8-diaza-spiro[4.5]decan-1-one Hydrochloride] | −19 | 150 |
| C[C@H]1CCCN1C1CCN(c2ccc(N3CCC4(CCNCC4)C3=O)c(F)c2)CC1.Cl [Example 46, 2-{4-[4-(2S-2-Methyl-pyrrolidin-1-yl)-piperidin-1-yl]-2-fluoro-phenyl}-2,8-diaza-spiro[4.5]decan-1-one Hydrochloride] | −24 | 100 |
| C[C@H]1CCCCN1[C@H]1CCN(c2ccc(N3CCC4(CCNCC4)C3=O)cc2)C1.Cl [Example 47, 2-{4-[3-((2S,3′S)-2-Methyl-piperidin-1-yl)-pyrrolidin-1-yl]-phenyl}-2,8-diaza-spiro[4.5]decan-1-one Hydrochloride] | −17 | 400 |
| C[C@H]1CCCCN1[C@H]1CCN(c2ccc(N3CCC4(CCNCC4)C3=O)c(C(F)(F)F)c2)C1.Cl [Example 48, 2-{4-[3-((2S,3′S)-2-Methyl-piperidin-1-yl)-pyrrolidin-1-yl]-2-trifluoromethyl-phenyl}-2,8-diaza-spiro[4.5]decan-1-one Hydrochloride] | −24 | 600 |
| C[C@H]1CCCCN1[C@H]1CCN(c2ccc(N3CCC4(CCNCC4)C3=O)c(F)c2)C1.Cl [Example 49, 2-{4-[3-((2S,3′S)-2-Methyl-piperidin-1-yl)-pyrrolidin-1-yl]-2-fluoro-phenyl}-2,8-diaza-spiro[4.5]decan-1-one Hydrochloride] | −22 | 500 |
| C[C@H]1CCCN1C1CCN(c2ccc(N3CCC4(CCN(S(=O)(=O)c5ccccc5)CC4)C3=O)cc2)CC1 [Example 50, 8-Benzenesulfonyl-2-{4-[4-(2S-2-methyl-pyrrolidin-1-yl)-piperidin-1-yl]-phenyl}-2,8-diaza-spiro[4.5]decan-1-one] | −23 | 240 |
